In assay [1] the target is T1, Amine oxidase [flavin-containing] B (Rattus norvegicus, UniProt P19643).
T1 sequence (P19643 whole entry): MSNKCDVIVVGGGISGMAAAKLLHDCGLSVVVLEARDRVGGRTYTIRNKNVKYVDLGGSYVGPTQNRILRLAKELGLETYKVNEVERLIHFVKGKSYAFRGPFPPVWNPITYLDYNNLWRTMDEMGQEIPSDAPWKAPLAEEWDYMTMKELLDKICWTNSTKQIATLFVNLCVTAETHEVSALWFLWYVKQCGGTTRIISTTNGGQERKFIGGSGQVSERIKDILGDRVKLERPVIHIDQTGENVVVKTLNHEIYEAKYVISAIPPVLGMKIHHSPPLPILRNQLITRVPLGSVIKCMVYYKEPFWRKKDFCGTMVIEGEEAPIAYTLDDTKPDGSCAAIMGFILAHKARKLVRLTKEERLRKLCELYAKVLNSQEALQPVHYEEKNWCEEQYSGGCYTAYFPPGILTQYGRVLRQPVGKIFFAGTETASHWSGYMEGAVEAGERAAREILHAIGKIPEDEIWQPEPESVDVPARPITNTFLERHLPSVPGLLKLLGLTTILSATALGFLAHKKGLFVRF
Briefly: Ability to inhibit Monoamine oxidase B enzyme.

The target in assay [2] is T2, Amine oxidase [flavin-containing] A (Rattus norvegicus, UniProt P21396).
T2 sequence (P21396 whole entry): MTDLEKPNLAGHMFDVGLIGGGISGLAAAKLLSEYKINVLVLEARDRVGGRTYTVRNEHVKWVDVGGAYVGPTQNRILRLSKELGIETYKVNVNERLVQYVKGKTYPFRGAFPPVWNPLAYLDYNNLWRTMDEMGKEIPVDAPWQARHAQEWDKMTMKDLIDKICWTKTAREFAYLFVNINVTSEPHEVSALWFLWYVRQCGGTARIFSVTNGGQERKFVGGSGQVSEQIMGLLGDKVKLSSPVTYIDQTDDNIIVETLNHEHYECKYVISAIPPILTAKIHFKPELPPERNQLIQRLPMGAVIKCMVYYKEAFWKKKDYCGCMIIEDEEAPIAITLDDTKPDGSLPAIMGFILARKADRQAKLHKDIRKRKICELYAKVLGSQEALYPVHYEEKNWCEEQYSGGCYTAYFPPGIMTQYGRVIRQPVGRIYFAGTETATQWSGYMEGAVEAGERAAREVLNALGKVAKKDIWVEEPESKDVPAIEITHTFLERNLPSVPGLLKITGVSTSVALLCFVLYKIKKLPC
Briefly: Ability to inhibit Monoamine oxidase A enzyme.

For the compound `O=C1c2ccccc2-c2nnc3c(c21)CCc1ccccc1-3`, the IC50 in assay [1] and in assay [2] was 50 µM in each case. For the compound `O=C1c2ccccc2-c2nnccc21`, the IC50 worked out at 27.5 µM in assay [1] and 97.6 µM in assay [2]. Regarding `O=C1c2ccccc2-c2nnc(-c3cccc(C(F)(F)F)c3)cc21`, in assay [2], the IC50 is above 5 µM. Turning to `c1ccc(-c2cc3c(nn2)-c2ccccc2C3)cc1`, it took 23.4 µM to reach half-maximal inhibition in assay [1] (IC50). For the compound `O=C(O)c1ccc(-c2cc3c(nn2)-c2ccccc2C3=O)cc1`, the IC50 in assay [1] and in assay [2] was 100 µM in each case. As for `O=C1c2ccccc2-c2nnc(-c3ccc(Cl)cc3)cc21`, the concentration for half-maximal inhibition (IC50) in assay [2] is above 5 µM. As to `O=C1c2ccccc2-c2nnc(-c3cccnc3)cc21`, the IC50 in assay [1] and in assay [2] was above 25 µM each time. On to `COc1ccc2c(c1)C(=O)c1cc(-c3cccc(C(F)(F)F)c3)nnc1-2`, for which the IC50 in assay [2] was determined as 5 µM. The same measure, in the same setting: under `Nc1cccc(-c2cc3c(nn2)-c2ccccc2C3=O)c1` stands 25.9 µM; under `O=C1c2ccccc2-c2nnc(-c3cccc(Br)c3)cc21`, 1 µM; under `O=C1c2ccccc2-c2nnc(Cc3ccccc3)cc21`, 100 µM. The same measure, in the same setting: under `COc1ccc(-c2cc3c(nn2)-c2ccccc2C3=O)cc1` stands 10 µM. Take `O=C1c2ccccc2-c2nnc(-c3ccc(F)c(F)c3)cc21`: half-maximal inhibition in assay [2] (IC50) required 1 µM. The same measure, in the same setting: under `COc1cccc(-c2cc3c(nn2)-c2ccccc2C3=O)c1` stands 50 µM; under `O=C1c2ccccc2-c2nnc(-c3cccc(Cl)c3)cc21`, above 5 µM; under `N#Cc1ccc(-c2cc3c(nn2)-c2ccccc2C3=O)cc1`, 25 µM. Same read-out and setting: under `N#Cc1cccc(-c2cc3c(nn2)-c2ccccc2C3=O)c1` stands above 10 µM. On to `O=C1c2ccccc2-c2nnc(-c3cccc(O)c3)cc21`, for which the figures for the IC50 in assay [1] and in assay [2] were above 1 µM and 1 µM, respectively. For `Cc1cc2c(nn1)-c1ccccc1C2=O`, in assay [2], the IC50 was above 100 µM. `O=C1c2ccccc2-c2nnc(C(F)(F)F)cc21`: the IC50 in assay [1] was above 25 µM; in assay [2], 25 µM. The corresponding values for `O=C1c2ccccc2-c2nnc(-c3cccc([N+](=O)[O-])c3)cc21` are above 0.5 µM and 1 µM. The corresponding values for `Cc1c(-c2ccccc2)nnc2c1C(=O)c1ccccc1-2` are above 100 µM and 100 µM.

In assay [2], `Cc1nnc2c(c1-c1ccccc1)C(=O)c1ccccc1-2` returned an IC50 of 50 µM. With `O=C1c2ccccc2-c2nnc(-c3ccc(N4CCCCC4)cc3)cc21`, the IC50 in assay [1] and in assay [2] was 1 µM each time.

Turning to `O=C1c2ccccc2-c2nnc(-c3cccc4ccccc34)cc21`, the results for the IC50 in assay [1] and in assay [2] were above 5 µM and 10 µM, respectively. The corresponding values for `O=C1c2ccccc2-c2nncc(-c3ccccc3)c21` are 93.7 µM and 34.3 µM. With `O=C1c2ccccc2-c2nnc(-c3ccc(F)cc3)cc21`, 30.6 µM corresponded to half-maximal inhibition in assay [2] (IC50). Consider `O=C1c2ccccc2-c2nnc3c(c21)-c1ccccc1CC3`, for which the IC50 in assay [1] and in assay [2] was 50 µM each time. With `Cc1nnc2c(c1Cc1ccccc1)C(=O)c1ccccc1-2`, the IC50 in assay [1] is 83.5 µM; in assay [2], 100 µM. In turn, `CC(=O)c1ccc(-c2cc3c(nn2)-c2ccccc2C3=O)cc1` showed an IC50 in assay [2] above 10 µM. For `COc1ccc(-c2cc3c(nn2)-c2ccccc2C3=O)cc1OC`, the IC50 in assay [1] and in assay [2] was 1 µM throughout. In the case of `CCOC(=O)c1c(-c2ccccc2)nnc2c1C(=O)c1ccccc1-2`, the IC50 in assay [1] is 5.3 µM; in assay [2], above 50 µM.

For `COc1cc(-c2cc3c(nn2)-c2ccccc2C3=O)ccc1O`, the IC50 in assay [1] and in assay [2] was 10 µM each time. `O=C1c2ccccc2-c2nnc(-c3ccccc3)c(Cc3ccccc3)c21` displayed an IC50 in assay [2] above 10 µM. On the same count and under the same terms, under `O=C1c2ccccc2-c2nnc(-c3ccc(Br)cc3)cc21` stands 1 µM. With `CC(=O)Nc1ccc(-c2cc3c(nn2)-c2ccccc2C3=O)cc1`, the IC50 in assay [1] and in assay [2] was above 10 µM each time. For the compound `O=C1c2ccccc2-c2nnc3c(c21)CCCC3`, the IC50 in assay [1] was 100 µM; in assay [2] it was 50.5 µM. Take `O=C1c2ccccc2-c2nnc(-c3ccc(O)cc3)cc21`: the IC50 in assay [2] is above 50 µM.

Take `O=C(c1ccccc1)c1cc2c(nn1)-c1ccccc1C2=O`: the figures for the IC50 in assay [1] and in assay [2] were 16.1 µM and above 50 µM, respectively. The corresponding values for `O=C(O)CCc1cc2c(nn1)-c1ccccc1C2=O` are 100 µM and 100 µM.

Regarding `O=C1c2ccccc2-c2nnc3ccc4ccccc4c3c21`, the IC50 in assay [1] and in assay [2] was 10 µM in each case. As for `O=C1c2ccccc2-c2nnc(-c3ccc([N+](=O)[O-])cc3)cc21`, half-maximal inhibition in assay [2] (IC50) required 25 µM.

As for `O=C1c2ccccc2-c2nnc(-c3cccs3)cc21`, the IC50 in assay [1] and in assay [2] was 1 µM each time. As for `O=C1c2ccccc2-c2nnc(-c3cc(C(F)(F)F)cc(C(F)(F)F)c3)cc21`, the IC50 in assay [1] was above 2 µM; in assay [2], 1 µM. Regarding `O=C1c2ccccc2-c2nnc(-c3ccccc3[N+](=O)[O-])cc21`, half-maximal inhibition in assay [2] (IC50) required 100 µM.

With `O=C1c2ccccc2-c2nnc(-c3ccc(C(F)(F)F)cc3)cc21`, the IC50 in assay [2] is 1 µM. Against the preceding compound, the IC50 is about 100-fold lower. Still for that read-out and setting: under `O=C1c2ccccc2-c2nnc(/C=C/c3ccccc3)cc21` stands above 1 µM. On to `O=C1c2ccccc2-c2nnc(-c3ccccn3)cc21`, for which the IC50 in assay [1] is above 25 µM; in assay [2] it was 25 µM. In turn, `O=C1c2ccccc2-c2nnc(-c3ccccc3)cc21` had an IC50 in assay [2] of 25 µM. Same read-out and setting: for `O=C1c2ccccc2-c2nnc(-c3cccc(F)c3)cc21` the value was 10 µM. In the case of `O=C1c2ccccc2-c2nncc(Cc3ccccc3)c21`, the IC50 in assay [1] and in assay [2] was 50 µM in each case. For `CCCCOc1ccc(-c2cc3c(nn2)-c2ccccc2C3=O)cc1`, the half-maximal inhibitory concentration (IC50) in assay [1] and in assay [2] was 10 µM in each case.

In the case of `O=C(c1ccccc1)c1c(-c2ccccc2)nnc2c1C(=O)c1ccccc1-2`, the results for the IC50 in assay [1] and in assay [2] were 7.7 µM and 10 µM, respectively.

As for `Nc1ccc(-c2cc3c(nn2)-c2ccccc2C3=O)cc1`, the figures for the IC50 in assay [1] and in assay [2] were 24.7 µM and 36.8 µM, respectively. For `O=C1c2ccccc2-c2nnc(-c3ccccc3O)cc21`, the results for the IC50 in assay [1] and in assay [2] were above 1 µM and 1 µM, respectively. `COc1ccccc1-c1cc2c(nn1)-c1ccccc1C2=O`: the values for the IC50 in assay [1] and in assay [2] were above 50 µM and 50 µM, respectively. The corresponding values for `O=C1c2ccccc2-c2nnc(-c3ccccc3F)cc21` are 18.1 µM and above 20 µM.

`O=C1c2ccccc2-c2nnc3ccccc3c21`: the IC50 in assay [1] and in assay [2] was 1 µM throughout.

On to `O=C1c2ccccc2-c2nnc(-c3cc(Cl)cc(Cl)c3)cc21`, for which the IC50 turned out to be 0.71 µM in assay [1] and 1 µM in assay [2]. For `O=C1c2ccccc2-c2nnc(-c3ccccc3C(F)(F)F)cc21`, the IC50 in assay [1] and in assay [2] was 10 µM each time. Consider `O=C1c2ccccc2-c2nnc(-c3ccco3)cc21`, for which the IC50 in assay [2] was above 50 µM. `Cc1ccccc1-c1cc2c(nn1)-c1ccccc1C2=O` gave an IC50 in assay [2] of 10 µM.

Consider `O=C1c2cc(O)ccc2-c2nnc(-c3cccc(C(F)(F)F)c3)cc21`, for which the IC50 in assay [1] amounted to 5.1 µM; in assay [2], 5 µM. The compound `O=C1c2ccccc2-c2nnc(CCc3ccccc3)cc21` came in with an IC50 in assay [2] of 50 µM. In other words, the double-digit micromolar range. `O=C1c2ccccc2-c2nnc(-c3ccccc3Cl)cc21` registered an IC50 in assay [2] above 50 µM. Same read-out and setting: for `O=C1c2ccccc2-c2nnc(-c3ccc4ccccc4c3)cc21` the value was 10 µM.
